Source: patent publication US20040087480A1, “Calcium channel target for controlling epidermal keratinocyte growth in psoriasis, and basal and squamous cell carcinomas” (Fujisawa Pharmaceutical Co. Ltd., priority 2002, published 2004)
Where “and” joins values, the source holds several entries; their conditions need not be identical. Equal entries are not always repeated.

Columns and labels:
hECaC2 [1] = assay: Quantitative TaqMan PCR of hECaC2 mRNA (normalized to GAPDH) in cultured human epidermal keratinocytes; format: cell-based; conditions: for increase in hECaC2 expression: 2 mM calcium and/or 1 μM VitD, relative to untreated, time-matched cultures
Procedure: Quantitative, TaqMan-based PCR was used to assess changes in mRNA levels for hECaC2 (normalized to GAPDH) from keratinocyte cultures grown in 2 mM calcium or 1 μM VitD over 1 and 3 days. mRNA levels are expressed as fold-changes versus levels measured in sibling cultures grown for 1 and 3 days in basal calcium (0.06 mM) and no VitD. VitD caused greater increases in hECaC2 expression than did calcium. […] Note differences in scaling of y-axes. All increases are significant from control with the exception of calcium at 1 day. Results are mean-±SEM from three experiments.
(§1) There is currently no published data on expression of either hECaC1 or hECaC2 in either primary human keratinocytes or human skin, although murine ECaC2 expression has been reported for mouse skin (Weber et al, 2001 Biochem Biophys Res Commun 289:1287-1294). Therefore, the inventors investigated if keratinocytes expressed either or both ECaC channels, and whether expression of these channels was correlated with cell differentiation stimulated by either calcium or VitD. […] However, hECaC2 expression was readily detected in these same cultures. At 1 and 3 days of culture hECaC2 expression levels were 0.014±0.002% and 0.005±0.0005% of GAPDH (N=3). […] Therefore, the observed absence of hECaC1 expression in keratinocytes was indeed due to the mRNA for this gene being at levels so low that they were undetectable.
(§2) The effects of elevated calcium or VitD on expression of hECaC1 or 2 in cultured keratinocytes were investigated. […] After 1 day in 2 mM calcium there was a small but consistent decrease in hECaC2 expression, which averaged approximately 85% of the untreated control.

murine ECaC1 or 2 = conditions: including in skin; Weber et al, 2001; cited from earlier work
hECaC2 [2] = conditions: Caco-2 cells; Wood et al, 2001; cited from earlier work
hECaC2 [3] = assay: Quantitative PCR of hECaC2 mRNA in cultured human skin biopsies (explant culture); format: cell-based; conditions: 1 μM VitD in culture medium (1.4 mM calcium), versus untreated biopsies cultured the same number of days
Procedure: Skin biopsies were taken from healthy donors and cultured for the indicated times with 1 μM VitD or with vehicle added to the culture medium. mRNA levels for hECaC2 were measured by quantitative PCR, normalized to GAPDH, and fold changes in expression were calculated relative to vehicle treated controls. Results are mean±SEM from two experiments.
The effect of VitD on hECaC2 expression in skin explants over time in culture was next examined, but the dynamics of gene expression in this system had to first be defined. All experiments with explant, cultured skin biopsies were performed in medium containing 1.4 mM calcium, a requirement for long-term viability (Varani et al, 1993 Am J Pathol 142:189-198). Biopsies placed in RNALater at time of collection were used to define expression levels of these genes at “−1” days in culture. Biopsies for which RNA was extracted immediately upon arrival in the lab (after overnight shipping from the source) were designated as “0” days in culture. Data for days 1 and 3 are from biopsies which were then cultured in the lab. All biopsies for an experiment were from the same donor.

hECaC1 [4] = assay: Quantitative PCR of hECaC1 expression in cultured human keratinocytes; format: cell-based; conditions: up to 3 days treatment with 2 mM calcium or 1 μM VitD
From the text: as §1, §2

hECaC1 [5] = conditions: 1 μM VitD, cultured skin biopsies
Procedure: The effect of VitD on gene expression in cultured biopsies was assessed by comparing mRNA levels in the treated biopsies to levels in untreated biopsies cultured for the same number of days (FIG. 4).

Row | Compound | increase in hECaC2 expression (hECaC2 [1]; 1 day treatment) | increase in hECaC2 expression (hECaC2 [1]; 3 days treatment) | murine ECaC1 or 2 expression response to VitD (murine ECaC1 or 2) | hECaC2 expression response to VitD (hECaC2 [2]) | increase in hECaC2 expression (hECaC2 [3]; 1 day) [fold] | increase in hECaC2 expression (hECaC2 [3]; 3 days) [fold] | hECaC1 expression (hECaC1 [4]) | hECaC1 expression in response to VitD (hECaC1 [5]) | hECaC2 expression, % of the untreated control (hECaC2 [1]; 1 day in 2 mM calcium)
1 | Vitamin D [VitD] | 63 fold and 60 fold | 51 fold | unresponsive | upregulated | 3.6 | 7.8 | not detected | nor was expression induced | 
2 | [Ca+2] [calcium] |  | approximately 3.8 fold |  |  |  |  | not detected |  | approximately 85%
